Source: US20050171195A1, “P2X7 antagonists for treating neuropathic pain” (priority 2003, published 2005)

Row | melting point | SMILES
1 | 93 to 94 °C | COc1ccc(CC(=O)NC(NC(=NC#N)Nc2cc(C)ccc2C)C(C)(C)C)cc1OC (stereo not shown) [Example 21, N-[1-({(cyanoimino)[(2,5-dimethylphenyl)amino]methyl}amino)-2,2-dimethylpropyl]-2-(3,4-dimethoxyphenyl)acetamide]
2 | 189 to 190 °C | CCSc1ccc(CC(=O)NC(NC(=NC#N)Nc2cccc3ncccc23)C(C)(C)C)cc1 (stereo not shown) [Example 37, N-(1-{[(cyanoimino)(5-quinolinylamino)methyl]amino}-2,2-dimethylpropyl)-2-[4-(ethylthio)phenyl]acetamide]
3 | 194.5 to 195.5 °C | CC(C)(C)C(NC(=O)Cc1ccc(C#N)cc1)NC(=NC#N)Nc1cccc2ncccc12 (stereo not shown) [Example 41, N-(1-{[(cyanoimino)(5-quinolinylamino)methyl]amino}-2,2-dimethylpropyl)-2-(4-cyanophenyl)acetamide]
4 | 162 to 163 °C | COc1ccc(NC(=NC#N)NC(NC(=O)Cc2ccc(OC)c(OC)c2)C(C)(C)C)c(OC)n1 (stereo not shown) [Example 27, N-[1-({(cyanoimino)[(2,6-dimethoxy-3-pyridinyl)amino]methyl}amino)-2,2-dimethylpropyl]-2-(3,4-dimethoxyphenyl)acetamide]
5 | 172 to 173 °C | CSc1ccc(CC(=O)NC(NC(=NC#N)Nc2cccnc2C)C(C)(C)C)cc1 (stereo not shown) [Example 8, N-[1-({(cyanoimino)[(2-methyl-3-pyridinyl)amino]methyl}amino)-2,2-dimethylpropyl]-2-[4-(methylthio)phenyl]acetamide]
6 | 170 to 171 °C | COc1ccc(CC(=O)NC(NC(=NC#N)Nc2c(F)cc(F)cc2F)C(C)(C)C)cc1OC (stereo not shown) [Example 22, N-[1-({(cyanoimino)[(2,4,6-trifluorophenyl)amino]methyl}amino)-2,2-dimethylpropyl]-2-(3,4-dimethoxyphenyl)acetamide]
7 | 200 to 201 °C | CC(C)(C)C(NC(=O)Cc1ccc2ccccc2c1)NC(=NC#N)Nc1cccc2ncccc12 (stereo not shown) [Example 36, N-(1-{[(cyanoimino)(5-quinolinylamino)methyl]amino}-2,2-dimethylpropyl)-2-(2-naphthyl)acetamide]
8 | 174 °C | COc1ccc(CC(=O)NC(NC(=NC#N)Nc2ccccc2C)C(C)(C)C)cc1 (stereo not shown) [Example 14, N-[1-({(cyanoimino)[(2-methylphenyl)amino]methyl}amino)-2,2-dimethylpropyl]-2-(4-methoxyphenyl)acetamide]
9 | 188 to 189 °C | CSc1ccc(CC(=O)NC(NC(=NC#N)Nc2cccc3ncccc23)C(C)(C)C)cc1 (stereo not shown) [Example 31, N-(1-{[(cyanoimino)(5-quinolinylamino)methyl]amino}-2,2-dimethylpropyl)-2-[4-(methylthio)phenyl]acetamide]
10 | 181 to 182 °C | Cc1ccccc1NC(=NC#N)NC(NC(=O)Cc1ccc(Cl)cc1)C(C)(C)C (stereo not shown) [Example 17, 2-(4-chlorophenyl)-N-[1-({(cyanoimino)[(2-methylphenyl)amino]methyl}amino)-2,2-dimethylpropyl]acetamide]
11 | 112 to 114 °C | CCc1ncccc1NC(=NC#N)NC(NC(=O)Cc1ccc(Cl)cc1)C(C)(C)C (stereo not shown) [Example 9, 2-(4-chlorophenyl)-N-[1-({(cyanoimino)[(2-ethyl-3-pyridinyl)amino]methyl}amino)-2,2-dimethylpropyl]acetamide]
12 | 146 to 147 °C | COc1ccc(CC(=O)NC(NC(=NC#N)Nc2cccnc2OC)C(C)(C)C)cc1OC (stereo not shown) [Example 24, N-[1-({(cyanoimino)[(2-methoxy-3-pyridinyl)amino]methyl}amino)-2,2-dimethylpropyl]-2-(3,4-dimethoxyphenyl)acetamide]
13 | 58 to 60 °C | Cc1ncccc1NC(=NC#N)NC(NC(=O)Cc1ccc(F)c(F)c1)C(C)(C)C (stereo not shown) [Example 1, N-[1-({(cyanoimino)[(2-methyl-3-pyridinyl)amino]methyl}amino)-2,2-dimethylpropyl]-2-(3,4-difluorophenyl)acetamide]
14 | 174 to 175 °C | CC(C)(C)C(NC(=O)Cc1ccc(Cl)cc1)NC(=NC#N)Nc1cccnc1Cl (stereo not shown) [Example 26, 2-(4-chlorophenyl)-N-(1-{[[(2-chloro-3-pyridinyl)amino](cyanoimino)methyl]amino}-2,2-dimethylpropyl)acetamide]
15 | 187 to 188 °C | COc1ccc(CC(=O)NC(NC(=NC#N)Nc2cc(Cl)ccc2F)C(C)(C)C)cc1OC (stereo not shown) [Example 23, N-(1-{[[(5-chloro-2-fluorophenyl)amino](cyanoimino)methyl]amino}-2,2-dimethylpropyl)-2-(3,4-dimethoxyphenyl)acetamide]
16 | 198 to 199 °C | Cc1ccc2c(NC(=NC#N)NC(NC(=O)Cc3ccc(Cl)cc3)C(C)(C)C)cccc2n1 (stereo not shown) [Example 44, 2-(4-chlorophenyl)-N-[1-({(cyanoimino)[(2-methyl-5-quinolinyl)amino]methyl}amino)-2,2-dimethylpropyl]acetamide]
17 | 166 to 167 °C | Cc1ncccc1NC(=NC#N)NC(NC(=O)Cc1ccc(F)cc1)C(C)(C)C (stereo not shown) [Example 6, N-[1-({(cyanoimino)[(2-methyl-3-pyridinyl)amino]methyl}amino)-2,2-dimethylpropyl]-2-(4-fluorophenyl)acetamide]

Row | melting point | SMILES
18 | 190 to 191 °C | COc1ccc(CC(=O)NC(NC(=NC#N)Nc2cc(F)ccc2F)C(C)(C)C)cc1OC (stereo not shown) [Example 19, N-[1-({(cyanoimino)[(2,5-difluorophenyl)amino]methyl}amino)-2,2-dimethylpropyl]-2-(3,4-dimethoxyphenyl)acetamide]
19 | 65 to 68 °C | COc1ccc(CCCC(=O)NC(NC(=NC#N)Nc2cccnc2C)C(C)(C)C)cc1 (stereo not shown) [Example 3, N-[1-({(cyanoimino)[(2-methyl-3-pyridinyl)amino]methyl}amino)-2,2-dimethylpropyl]-4-(4-methoxyphenyl)butanamide]
20 | 66 to 68 °C | Cc1ncccc1NC(=NC#N)NC(NC(=O)CCCc1cccs1)C(C)(C)C (stereo not shown) [Example 7, N-[1-({(cyanoimino)[(2-methyl-3-pyridinyl)amino]methyl}amino)-2,2-dimethylpropyl]-4-(2-thienyl)butanamide]
21 | 181 to 182 °C | CC(C)(C)C(NC(=O)CCCc1cccnc1)NC(=NC#N)Nc1cccc2ncccc12 (stereo not shown) [Example 42, N-(1-{[(cyanoimino)(5-quinolinylamino)methyl]amino}-2,2-dimethylpropyl)-4-(3-pyridinyl)butanamide]
22 | 153 to 154 °C | Cc1ccccc1NC(=NC#N)NC(NC(=O)CCCc1ccccc1)C(C)(C)C (stereo not shown) [Example 18, N-[1-({(cyanoimino)[(2-methylphenyl)amino]methyl}amino)-2,2-dimethylpropyl]-4-phenylbutanamide]
23 | 147 to 148 °C | CC(C)(C)C(NC(=O)Cc1ccc2cccnc2c1)NC(=NC#N)Nc1cccc2ncccc12 (stereo not shown) [Example 39, N-(1-{[(cyanoimino)(5-quinolinylamino)methyl]amino}-2,2-dimethylpropyl)-2-(7-quinolinyl)acetamide]
24 | 191 to 192 °C | CC(C)(C)C(NC(=O)Cc1ccc2c(c1)OCCO2)NC(=NC#N)Nc1cccc2ncccc12 (stereo not shown) [Example 38, N-(1-{[(cyanoimino)(5-quinolinylamino)methyl]amino}-2,2-dimethylpropyl)-2-(2,3-dihydro-1,4-benzodioxin-6-yl)acetamide]
25 | 195 to 196 °C | CC(C)(C)C(NC(=O)Cc1ccc(Cl)cc1)NC(=NC#N)Nc1cccc2ncccc12 (stereo not shown) [Example 32, 2-(4-chlorophenyl)-N-(1-{[(cyanoimino)(5-quinolinylamino)methyl]amino}-2,2-dimethylpropyl)acetamide]
26 | 162 to 163 °C | COc1ccc(NC(=NC#N)NC(NC(=O)c2ccc(Cl)cc2)C(C)(Cl)Cl)c(OC)n1 (stereo not shown) [Example 51, 4-chloro-N-[2,2-dichloro-1-({(cyanoimino)[(2,6-dimethoxy-3-pyridinyl)amino]methyl}amino)propyl]benzamide]
27 | 135 to 137 °C | CC(C)(C)C(NC(=O)Cc1ccc(Cl)cc1)NC(=NC#N)Nc1cccc2cnsc12 (stereo not shown) [Example 45, N-(1-{[(1,2-benzisothiazol-7-ylamino)(cyanoimino)methyl]amino}-2,2-dimethylpropyl)-2-(4-chlorophenyl)acetamide]
28 | 133 to 134 °C | Cc1ncccc1NC(=NC#N)NC(NC(=O)CCCCc1ccccc1)C(C)(C)C (stereo not shown) [Example 5, N-[1-({(cyanoimino)[(2-methyl-3-pyridinyl)amino]methyl}amino)-2,2-dimethylpropyl]-5-phenylpentanamide]
29 | 152 to 153 °C | Cc1ccccc1NC(=NC#N)NC(NC(=O)Cc1ccc2c(c1)OCO2)C(C)(C)C (stereo not shown) [Example 15, 2-(1,3-benzodioxol-5-yl)-N-[1-({(cyanoimino)[(2-methylphenyl)amino]methyl}amino)-2,2-dimethylpropyl]acetamide]
30 | 151 to 152 °C | CSc1ccc(CC(=O)NC(NC(=NC#N)Nc2ccccc2C)C(C)(C)C)cc1 (stereo not shown) [Example 16, N-[1-({(cyanoimino)[(2-methylphenyl)amino]methyl}amino)-2,2-dimethylpropyl]-2-[4-(methylthio)phenyl]acetamide]
31 | 198 to 199 °C | COc1cc(OC)cc(C(=O)NC(NC(=NC#N)Nc2cccnc2OC)C(C)(Cl)Cl)c1 (stereo not shown) [Example 50, N-[2,2-dichloro-1-({(cyanoimino)[(2-methoxy-3-pyridinyl)amino]methyl}amino)propyl]-3,5-dimethoxybenzamide]
32 | 114 to 117 °C | CN1CCCc2c(NC(=NC#N)NC(NC(=O)Cc3ccc(Cl)cc3)C(C)(C)C)cccc21 (stereo not shown) [Example 43, 2-(4-chlorophenyl)-N-[1-({(cyanoimino)[(1-methyl-1,2,3,4-tetrahydro-5-quinolinyl)amino]methyl}amino)-2,2-dimethylpropyl]acetamide]
33 | 188 to 190 °C | COc1ccc(CC(=O)NC(NC(=NC#N)Nc2cccnc2OC)C(C)(Cl)Cl)cc1OC (stereo not shown) [Example 54, N-[2,2-dichloro-1-({(cyanoimino)[(2-methoxy-3-pyridinyl)amino]methyl}amino)propyl]-2-(3,4-dimethoxyphenyl)acetamide]
34 | 150 to 151 °C | CC(C)(C)C(NC(=O)Cc1ccc2ncccc2c1)NC(=NC#N)Nc1cccc2ncccc12 (stereo not shown) [Example 40, N-(1-{[(cyanoimino)(5-quinolinylamino)methyl]amino}-2,2-dimethylpropyl)-2-(6-quinolinyl)acetamide]
